Laboratory results from ChEMBL document CHEMBL1147709, “Arylanthranilodinitriles: a new biaryl class of antileishmanial agents” (2006).

Tests used:
Type in all cases: functional
Leishmania donovani [1] = test: Antileishmanial activity against Leishmania donovani amastigotes at 20 ug/ml
Leishmania donovani [2] = test: Antileishmanial activity against Leishmania donovani promastigotes at 8 ug/ml
Leishmania donovani [3] = test: Antileishmanial activity against Leishmania donovani promastigotes at 4 ug/ml
Leishmania donovani [4] = test: Antileishmanial activity against Leishmania donovani promastigotes at 2 ug/ml

Work on `COc1ccc(-c2c(C)c(C#N)c(N)c(C#N)c2SC)cc1OC` yielded an inhibition at 20 µg/mL (Leishmania donovani [1]) of 53%, an inhibition at 8 µg/mL (Leishmania donovani [2]) of 69% and an inhibition at 4 µg/mL (Leishmania donovani [3]) of 60%.

In the case of `CSc1c(C)c(-c2ccc(Cl)cc2)c(C#N)c(N)c1C#N`, the inhibition at 20 µg/mL (Leishmania donovani [1]) is reported as 10%, the inhibition at 8 µg/mL (Leishmania donovani [2]) is reported as 50% and the inhibition at 4 µg/mL (Leishmania donovani [3]) is reported as 46%.

For `CSc1c(C#N)c(N)c(C#N)c(C)c1-c1ccc(F)cc1`, the inhibition at 20 µg/mL (Leishmania donovani [1]) was 62%, the inhibition at 8 µg/mL (Leishmania donovani [2]) was 65% and the inhibition at 4 µg/mL (Leishmania donovani [3]) was 43%.

`CSc1c(C)c(-c2ccccc2)c(C#N)c(N)c1C#N` was tested, and the inhibition at 20 µg/mL (Leishmania donovani [1]) was 23%, the inhibition at 8 µg/mL (Leishmania donovani [2]) was 48% and the inhibition at 4 µg/mL (Leishmania donovani [3]) was 25%.

`CSc1c(C#N)c(N)c(C#N)c(C)c1-c1ccccc1F` gave an inhibition at 20 µg/mL (Leishmania donovani [1]) of 61%, an inhibition at 8 µg/mL (Leishmania donovani [2]) of 60% and an inhibition at 4 µg/mL (Leishmania donovani [3]) of 37%.

`COc1ccc(-c2c(C)c(C#N)c(N)c(C#N)c2SC)c(OC)c1` was tested, and the inhibition at 20 µg/mL (Leishmania donovani [1]) was 56%, the inhibition at 8 µg/mL (Leishmania donovani [2]) was 59% and the inhibition at 4 µg/mL (Leishmania donovani [3]) was 36%.

`COc1ccc(-c2c(C)c(SC)c(C#N)c(N)c2C#N)cc1` gave an inhibition at 20 µg/mL (Leishmania donovani [1]) of 25%, an inhibition at 8 µg/mL (Leishmania donovani [2]) of 53% and an inhibition at 4 µg/mL (Leishmania donovani [3]) of 31%.

Work on `CSc1c(C#N)c(N)c(C#N)c(C)c1-c1ccc(C(F)(F)F)cc1` yielded an inhibition at 20 µg/mL (Leishmania donovani [1]) of 70%, an inhibition at 8 µg/mL (Leishmania donovani [2]) of 83% and an inhibition at 4 µg/mL (Leishmania donovani [3]) of 67%.

`N=C(N)c1ccc(OCCCCCOc2ccc(C(=N)N)cc2)cc1` [PENTAMIDINE] gave an inhibition at 20 µg/mL (Leishmania donovani [1]) of 48% and an inhibition at 2 µg/mL (Leishmania donovani [4]) of 71%.
